pIC50: −log10 of the molar value. “And” between values parts separate entries of the source, which are not always exact repeats. Equal entries are not always repeated. Marks after values point to notes of the source that are not given here. Strand notation (5' to 3'): a small letter for the sugar, then the base; units joined by * are phosphorothioate-linked, units joined directly phosphodiester-linked; [ ] holds rarer units or linkages, { } end groups; capitals alone tell only the bases. k = constrained ethyl (cEt); [5mC] = 5-methylcytosine; d = 2'-deoxy (DNA)
Tests used:
[1] = test system: Yap1 mRNA; experiment: Yap1 mRNA in SNU449 cells in combination with sorafenib (Example 48); format: cell-based, human; conditions: free uptake, approximately 48 hours
Method: Modified oligonucleotides described in the studies above were tested at various doses in hepatocellular carcinoma cell line SNU449. ION No. 792169, described herein above, was used as a control modified oligonucleotide. ION No. 715487 was used to target Yap1 RNA. […] After approximately 48 hours, Yap1 mRNA levels were measured.
Yap1 mRNA knockdown in tumors was measured by RT-qPCR as previously described using the Human Yap1 primer-probe set RTS4814. Yap1 mRNA levels were normalized to actin-beta content, as measured by primer probe set RTS5002. Results are presented in the tables below as percent control of the amount of Yap1 mRNA relative to PBS treated cells (% control).

[2] = test system: Yap1 mRNA; experiment: Dose-dependent inhibition of human Yap1 in A-431 cells (Example 8, 10,000 cells per well, RTS4814); format: cell-based; conditions: for Yap1 mRNA, % UTC: A-431 cells, 10,000 cells per well; for pIC50 / % UTC (Yap1 mRNA): A-431 cells
Outline: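 A-431 cells (10,000/well) dosed with modified oligonucleotides by free uptake; Yap1 mRNA measured ~48 h later with primer-probe set RTS4814, normalized to total RNA (RIBOGREEN). Values are % of untreated control; IC50 from linear regression on log/linear plot.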

[3] = Tolerability in CD-1 mice, body and organ weights (Example 18); format: in vivo; conditions: male CD-1 mice, 50 mg/kg s.c. twice a week (total of 9 treatments), end of study (day 34)
Method: Groups of four male CD-1 mice at 5-6 weeks of age (obtained from Charles River) were injected subcutaneously twice a week for four weeks (for a total of 9 treatments) with 50 mg/kg of modified oligonucleotides. One group of male CD-1 mice was injected with PBS. Mice were euthanized on day 34 post start of treatment (24 hours following the final administration).
Body weights of CD-1 mice were measured at the end of the study, and the average body weight for each group is presented in the table below. Modified oligonucleotides that caused any changes in organ weights outside the expected range for modified oligonucleotides were excluded from further studies.

[4] = Tolerability in Sprague-Dawley rats, body and organ weights (Example 20); format: in vivo; conditions: male Sprague-Dawley rats, 50 mg/kg s.c. weekly for 6 weeks (7 doses); for Kidney weight / Liver weight / Spleen weight: end of study; for body weight: terminal, prior to necropsy
Method: Terminal body weight was measured prior to necropsy. Ionis oligonucleotides that caused any changes in organ weights outside the expected range for modified oligonucleotides were excluded from further studies.

[5] = test system: SNU449 xenograft tumor; experiment: Tumor volume in SNU449 xenograft tumor model (first Example 30); format: in vivo, human; conditions: 50 mg/kg
Method: Modified oligonucleotides described in the studies above were tested in a hepatocellular carcinoma SNU449 xenograft tumor model. A control oligonucleotide 792169 was also tested.
Five million SNU449 cells in 30% matrigel were implanted subcutaneously into the fatpads of female NOD.Cg-Prkdcscid II2rgtmlWjl/SzJ mice (from Jackson Laboratory) at 4-6 weeks of age. 43 days post implantation (when tumors had reached approximately 100 mm^3 in size), groups of eight mice each were administered with 50 mg/kg modified oligonucleotide daily for 10 days (loading dose), following which they were administered with 50 mg/kg modified oligonucleotide four times a week for one week, following which they were dosed with 50 mg/kg modified oligonucleotide thrice weekly until the end of the study. Animals were sacrificed and tumors were collected on day 119 post implantation. Yap1 mRNA knockdown in tumors was measured by RT-qPCR as previously described using the Human Yap1 primer-probe set RTS4814. Yap1 mRNA levels were normalized to actin-beta content, as measured by primer probe set RTS5002. Results are presented in the tables below as percent control of the amount of Yap1 mRNA relative to PBS treated animals (% control).
Tumor volumes were also measured at the indicated days in the table below

[6] = oligonucleotide at 0.04 uM, sorafenib 0 uM
[7] = oligonucleotide at 0.04 uM, sorafenib 0.37 uM
[8] = oligonucleotide at 0.04 uM, sorafenib 3.33 uM
[9] = oligonucleotide at 0.04 uM, sorafenib 10 uM
[10] = oligonucleotide at 0.04 uM, sorafenib […]
[11] = oligonucleotide at 0.2 uM, sorafenib 0 uM
[12] = oligonucleotide at 0.2 uM, sorafenib 0.37 uM
[13] = oligonucleotide at 0.2 uM, sorafenib 3.33 uM
[14] = oligonucleotide at 0.2 uM, sorafenib 10 uM
[15] = oligonucleotide at 0.2 uM, sorafenib […]
[16] = oligonucleotide at 1 uM, sorafenib 0 uM
[17] = oligonucleotide at 1 uM, sorafenib 0.37 uM
[18] = oligonucleotide at 1 uM, sorafenib 3.33 uM
[19] = oligonucleotide at 1 uM, sorafenib 10 uM
[20] = oligonucleotide at 1 uM, sorafenib […]
[21] = oligonucleotide at 5 uM, sorafenib 0 uM
[22] = oligonucleotide at 5 uM, sorafenib 0.37 uM
[23] = oligonucleotide at 5 uM, sorafenib 3.33 uM
[24] = oligonucleotide at 5 uM, sorafenib 10 uM
[25] = oligonucleotide at 5 uM, sorafenib […]
[26] = day 101 post tumor implantation
[27] = day 105 post tumor implantation
[28] = day 108 post tumor implantation
[29] = day 119 post tumor implantation

## 715487 (kA*kT*kT*dA*d[5mC]*dT*dT*d[5mC]*dA*dT*dA*dG*d[5mC]*kT*kT*kA) [compound 715487]
[1]; [6]
  YAP1 mRNA: 98 % control
[1]; [7]
  YAP1 mRNA: 97 % control
[1]; [8]
  YAP1 mRNA: 83 % control
[1]; [9]
  YAP1 mRNA: 78 % control
[1]; [10]
  YAP1 mRNA: 77 % control
[1]; [11]
  YAP1 mRNA: 54 % control
[1]; [12]
  YAP1 mRNA: 51 % control
[1]; [13]
  YAP1 mRNA: 45 % control
[1]; [14]
  YAP1 mRNA: 46 % control
[1]; [15]
  YAP1 mRNA: 44 % control
[1]; [16]
  YAP1 mRNA: 30 % control
[1]; [17]
  YAP1 mRNA: 23 % control
[1]; [18]
  YAP1 mRNA: 21 % control
[1]; [19]
  YAP1 mRNA: 20 % control
[1]; [20]
  YAP1 mRNA: 22 % control
[1]; [21]
  YAP1 mRNA: 9 % control
[1]; [22]
  YAP1 mRNA: 8 % control
[1]; [23]
  YAP1 mRNA: 7 % control
[1]; [24]
  YAP1 mRNA: 8 % control
[1]; [25]
  YAP1 mRNA: 7 % control

## 1076453 (GTAATATTGCAATCTG; 3-10-3 cEt gapmer, further chemistry not given here) [compound 1076453]
[2]; 31.3 nM, free uptake, approximately 48 hours, RTS4814
  Yap1 mRNA, % UTC: 11 % UTC
[2]; 125.0 nM, free uptake, approximately 48 hours, RTS4814
  Yap1 mRNA, % UTC: 2 % UTC
[2]; 500.0 nM, free uptake, approximately 48 hours, RTS4814
  Yap1 mRNA, % UTC: 1 % UTC
[2]; 2000.00 nM, free uptake, approximately 48 hours, RTS4814
  Yap1 mRNA, % UTC: 2 % UTC
[2]; free uptake, approximately 48 hours, RTS4814, linear regression on log/linear plot
  pIC50: > 7.70
[3]
  Kidney weight: 0.56 g
  Liver weight: 1.91 g
  Spleen weight: 0.20 g
  body weight: 38 g
[4]
  Kidney weight: 3.2 g
  Liver weight: 16 g
  Spleen weight: 2.1 g
  body weight: 371 g

## 1198440 (AAGTGTATGTCAGAAG; cEt, 2'-MOE, 5-methylcytosine, phosphorothioate modifications, further chemistry not given here) [compound 1198440]
[5]; day 43 post tumor implantation
  Average Tumor Volume: 111 mm^3
[5]; day 46 post tumor implantation
  Average Tumor Volume: 152 mm^3
[5]; day 50 post tumor implantation
  Average Tumor Volume: 168 mm^3
[5]; day 53 post tumor implantation
  Average Tumor Volume: 201 mm^3
[5]; day 57 post tumor implantation
  Average Tumor Volume: 242 mm^3
[5]; day 60 post tumor implantation
  Average Tumor Volume: 263 mm^3
[5]; day 64 post tumor implantation
  Average Tumor Volume: 338 mm^3
[5]; day 67 post tumor implantation
  Average Tumor Volume: 376 mm^3
[5]; day 71 post tumor implantation
  Average Tumor Volume: 373 mm^3
[5]; day 75 post tumor implantation
  Average Tumor Volume: 401 mm^3
[5]; day 78 post tumor implantation
  Average Tumor Volume: 429 mm^3
[5]; day 81 post tumor implantation
  Average Tumor Volume: 514 mm^3
[5]; day 85 post tumor implantation
  Average Tumor Volume: 606 mm^3
[5]; day 88 post tumor implantation
  Average Tumor Volume: 613 mm^3
[5]; day 92 post tumor implantation
  Average Tumor Volume: 690 mm^3
[5]; day 94 post tumor implantation
  Average Tumor Volume: 773 mm^3
[5]; day 98 post tumor implantation
  Average Tumor Volume: 804 mm^3
[5]; [26]
  Average Tumor Volume: 818 mm^3
[5]; [27]
  Average Tumor Volume: 894 mm^3
[5]; [28]
  Average Tumor Volume: 921 mm^3
[5]; [29]
  Average Tumor Volume: 978 mm^3

## CGCCGATAAGGTACAC (cEt gapmer, phosphorothioate backbone, further chemistry not given here) [ION 792169, reference compound]
[5]; day 43 post tumor implantation
  Average Tumor Volume: 111 mm^3
[5]; day 46 post tumor implantation
  Average Tumor Volume: 162 mm^3
[5]; day 50 post tumor implantation
  Average Tumor Volume: 180 mm^3
[5]; day 53 post tumor implantation
  Average Tumor Volume: 247 mm^3
[5]; day 57 post tumor implantation
  Average Tumor Volume: 280 mm^3
[5]; day 60 post tumor implantation
  Average Tumor Volume: 317 mm^3
[5]; day 64 post tumor implantation
  Average Tumor Volume: 397 mm^3
[5]; day 67 post tumor implantation
  Average Tumor Volume: 466 mm^3
[5]; day 71 post tumor implantation
  Average Tumor Volume: 519 mm^3
[5]; day 75 post tumor implantation
  Average Tumor Volume: 559 mm^3
[5]; day 78 post tumor implantation
  Average Tumor Volume: 634 mm^3
[5]; day 81 post tumor implantation
  Average Tumor Volume: 681 mm^3
[5]; day 85 post tumor implantation
  Average Tumor Volume: 785 mm^3
[5]; day 88 post tumor implantation
  Average Tumor Volume: 889 mm^3
[5]; day 92 post tumor implantation
  Average Tumor Volume: 1170 mm^3
[5]; day 94 post tumor implantation
  Average Tumor Volume: 1215 mm^3
[5]; day 98 post tumor implantation
  Average Tumor Volume: 1355 mm^3
[5]; [26]
  Average Tumor Volume: 1417 mm^3
[5]; [27]
  Average Tumor Volume: 1509 mm^3
[5]; [28]
  Average Tumor Volume: 1571 mm^3
[5]; [29]
  Average Tumor Volume: 1697* mm^3
[1]; [6]
  YAP1 mRNA: 115 % control
[1]; [7]
  YAP1 mRNA: 97 % control
[1]; [8]
  YAP1 mRNA: 99 % control
[1]; [9]
  YAP1 mRNA: 102 % control
[1]; [10]
  YAP1 mRNA: 100 % control
[1]; [11]
  YAP1 mRNA: 113 % control
[1]; [12]
  YAP1 mRNA: 96 % control
[1]; [13]
  YAP1 mRNA: 91 % control
[1]; [14]
  YAP1 mRNA: 94 % control
[1]; [15]
  YAP1 mRNA: 97 % control
[1]; [16]
  YAP1 mRNA: 103 % control
[1]; [17]
  YAP1 mRNA: 99 % control
[1]; [18]
  YAP1 mRNA: 92 % control
[1]; [19]
  YAP1 mRNA: 93 % control
[1]; [20]
  YAP1 mRNA: 93 % control
[1]; [21]
  YAP1 mRNA: 103 % control
[1]; [22]
  YAP1 mRNA: 104 % control
[1]; [23]
  YAP1 mRNA: 97 % control
[1]; [24]
  YAP1 mRNA: 97 % control
[1]; [25]
  YAP1 mRNA: 95 % control

## 958499 (ATTAGAGTATGTGGCA; 3-10-3 cEt gapmer, further chemistry not given here) [compound 958499]
[2]; 31.3 nM
  % UTC (Yap1 mRNA): 36 % UTC and 37 % UTC
[2]; 125.0 nM
  % UTC (Yap1 mRNA): 5 % UTC and 4 % UTC
[2]; 500.0 nM
  % UTC (Yap1 mRNA): 2 % UTC
[2]; 2000.00 nM
  % UTC (Yap1 mRNA): 2 % UTC
[2]; Yap1 mRNA
  pIC50: > 7.70
[3]
  Kidney weight: 0.57 g
  Liver weight: 2.20 g
  Spleen weight: 0.22 g
  body weight: 39 g
[4]
  Kidney weight: 3.1 g
  Liver weight: 14 g
  Spleen weight: 2.8 g
  body weight: 333 g

— patent US11214803B2, “Modulators of YAP1 expression” (Ionis Pharmaceuticals, Inc., priority 2019, dated 2022)
